The target of test [1] is T1, α2-receptors of the central nervous system (Rattus norvegicus, UniProt P22909).
T1 construct: from tissue; host or cells: living anaesthetized rat, central nervous system
T1 sequence (P22909 1-465): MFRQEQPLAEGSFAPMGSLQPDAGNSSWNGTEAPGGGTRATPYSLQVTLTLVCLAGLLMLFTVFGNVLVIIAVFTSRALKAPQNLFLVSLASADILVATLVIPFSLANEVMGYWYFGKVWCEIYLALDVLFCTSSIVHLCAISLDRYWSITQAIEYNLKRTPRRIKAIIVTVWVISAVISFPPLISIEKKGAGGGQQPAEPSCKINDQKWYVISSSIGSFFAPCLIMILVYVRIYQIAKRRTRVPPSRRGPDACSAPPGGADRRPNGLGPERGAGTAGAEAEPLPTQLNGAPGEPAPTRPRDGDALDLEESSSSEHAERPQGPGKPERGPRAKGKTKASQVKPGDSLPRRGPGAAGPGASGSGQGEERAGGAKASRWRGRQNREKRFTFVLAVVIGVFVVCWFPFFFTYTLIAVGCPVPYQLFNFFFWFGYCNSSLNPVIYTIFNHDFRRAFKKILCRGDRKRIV
Nature of the test: central α2-blocking effect in vivo: reversal of detomidine-induced mydriasis in anaesthetized rat. The conditions noted are these: iv, standard dose of detomidine i.v., then increasing i.v. doses of antagonist, read-out: ED50, dose producing a 50 percent reversal of detomidine-induced mydriasis. Here is the method: The central α2 -blocking effect of the compounds of the invention in vivo was studied. It is known that in the rat α2 -agonists induce dilation of the pupil (mydriasis) and that this effect is transmitted via α2 -receptors of the central nervous system. In an anaesthetized rat, a standard dose of detomidine was administered intravenously. Thereafter increasing doses of the antagonist under test were injected intravenously and the reversal of detomidine-induced mydriasis was observed. The ED50 value of the antagonist, i.e. the dose producing a 50 percent reversal, was determined.

Test [2] concerns the target T2, α2-receptors (mouse vas deferens) (Mus musculus, UniProt Q01338).
T2 construct: isolated, electrically stimulated mouse vas deferens preparation; from tissue; host or cells: mouse vas deferens
T2 sequence (Q01338 1-465): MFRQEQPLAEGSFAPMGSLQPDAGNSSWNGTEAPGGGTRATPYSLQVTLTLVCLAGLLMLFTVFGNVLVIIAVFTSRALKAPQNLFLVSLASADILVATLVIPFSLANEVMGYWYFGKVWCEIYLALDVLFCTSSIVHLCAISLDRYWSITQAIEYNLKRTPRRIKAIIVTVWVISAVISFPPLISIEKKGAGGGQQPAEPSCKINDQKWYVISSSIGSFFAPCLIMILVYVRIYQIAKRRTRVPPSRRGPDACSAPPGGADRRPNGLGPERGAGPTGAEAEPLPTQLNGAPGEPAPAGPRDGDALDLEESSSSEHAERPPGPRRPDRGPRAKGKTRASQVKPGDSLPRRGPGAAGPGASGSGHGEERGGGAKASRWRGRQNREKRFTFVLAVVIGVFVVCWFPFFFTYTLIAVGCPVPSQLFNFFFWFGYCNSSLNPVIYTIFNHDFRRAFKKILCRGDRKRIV
Nature of the test: α2-antagonism in vitro, isolated electrically stimulated mouse vas deferens (pA2 vs detomidine). It counts as cell-based. The conditions noted are these: antagonist given prior to agonist detomidine. Here is the method:
The α2 -antagonism of these compounds was determined in vitro using the isolated, electrically stimulated mouse vas deferens preparation (Marshall et al., Br. J. Pharmac. 62, 147, 151, 1978). In this model, an α2 -agonist (detomidine) blocks electrically stimulated muscular contractions and the effect of the α2 -antagonist is seen by administering it prior to the agonist and by determining its pA2 value.
Compound mouse vas deferens

The subject of another test is α2-receptors. The conditions noted are these: Virtanen et al., 1983; cited from earlier work.

`CC=C1c2ccccc2CC1(C)c1cnc[nH]1` (stereo not shown) [Compound VI, 4(5)-(2,3-dihydro-1-ethylidene-2-methyl-1H-inden-2-yl)-imidazole]: the 50% effective dose (ED50) (usually the dose at which the effect has come halfway, by size or by number of responders) in test [1] was 0.001 mg/kg.
As to `CC(C)C1(c2cnc[nH]2)Cc2ccccc2C1` [Compound III, 4(5)-(2,3-dihydro-2-isopropyl-1H-inden-2-yl)imidazole], the Kb (usually the affinity of an antagonist, worked out from how it opposes an agonist) in test [2] is 0.398 µM.
With `C=CC1(c2cnc[nH]2)Cc2ccccc2C1` [Compound IV, 4(5)-(2,3-dihydro-2-vinyl-1H-inden-2-yl)imidazole], the Kb in test [2] was 0.0251 µM.
Turning to `CC(C)(O)C1(c2cnc[nH]2)Cc2ccccc2C1` [Compound I, 2-[2,3-dihydro-2-[imidazol-4(5)-yl]-1H-inden-2-yl]-2-propanol], the Kb in test [2] was 3.98 µM.
As to `C=C1c2ccccc2CC1(C)c1cnc[nH]1` (stereo not shown) [Compound V, 4(5)-(2,3-dihydro-2-methyl-1-methylene-1H-inden-2-yl)-imidazole], the ED50 in test [1] is 0.03 mg/kg.
In test [2], `C=C(C)C1(c2cnc[nH]2)Cc2ccccc2C1` [Compound II, 4(5)-(2,3-dihydro-2-isopropenyl-1H-inden-2-yl)imidazole] had a Kb of 0.1 µM.
As for `Cc1cccc(Cc2c[nH]cn2)c1C` [detomidine], in the test on α2-receptors, the “α2-receptor stimulation responsible for primary pharmacodynamic effects, e.g. sedation (in words)” value is reported as “ability to stimulate α2 -receptors”.

The record behind these values is patent US4933359A, “4(5)-substituted imidazole derivatives as α2 -adrenergic receptor blockers” (Farmos-Yhtyma Oy, priority 1986, dated 1990).
